Source: PubChem BioAssay (NCI)
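In this assay, cells in 96-well plates receive the compound at five concentrations for 48 hours. Endpoints are linearly interpolated between the surrounding concentrations. TGI: concentration producing complete growth inhibition.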

What was measured:
Assay in all cases: NCI tumour cell line growth inhibition, 48 h
[1] = test system: HOP-62 NSCLC
[2] = test system: MDA-MB-435
[3] = test system: A549 NSCLC
[4] = test system: SF-295 CNS
[5] = test system: SNB-19 CNS
[6] = test system: IGROV1 ovarian
[7] = test system: HCC-2998 colon
[8] = test system: MCF7 breast
[9] = test system: SK-MEL-5 melanoma
[10] = test system: OVCAR-3 ovarian
[11] = test system: SW-620 colon
[12] = test system: MDA-MB-231 breast
[13] = test system: SR leukemia
[14] = test system: U251 CNS
[15] = test system: 786-0 renal
[16] = test system: HOP-92 NSCLC
[17] = test system: SN12C renal
[18] = test system: LOX IMVI melanoma
[19] = test system: A498 renal
[20] = test system: ACHN renal
[21] = test system: OVCAR-5 ovarian
[22] = test system: SF-268 CNS
[23] = test system: UACC-62 melanoma
[24] = test system: RXF 393 renal
[25] = test system: CAKI-1 renal
[26] = test system: OVCAR-8 ovarian
[27] = test system: OVCAR-4 ovarian
[28] = test system: DU-145 prostate
[29] = test system: UACC-257 melanoma
[30] = test system: NCI/ADR-RES ovarian
[31] = test system: HL-60(TB) leukemia
[32] = test system: CCRF-CEM leukemia
[33] = test system: HCT-15 colon
[34] = test system: EKVX NSCLC
[35] = test system: UO-31 renal
[36] = test system: TK-10 renal
[37] = test system: K-562 leukemia
[38] = test system: SK-OV-3 ovarian
[39] = test system: T-47D breast
[40] = test system: HCT-116 colon
[41] = test system: NCI-H522 lung
[42] = test system: SNB-75 CNS
[43] = test system: MDA-N
[44] = test system: BT-549 breast
[45] = test system: SK-MEL-28 melanoma
[46] = test system: KM12 colon
[47] = test system: HT29 colon
[48] = test system: MALME-3M melanoma
[49] = test system: HS 578T breast
[50] = test system: NCI-H460 lung
[51] = test system: RPMI-8226 leukemia
[52] = test system: SK-MEL-2 melanoma
[53] = test system: M14 melanoma
[54] = test system: NCI-H23 lung
[55] = test system: COLO 205 colon
[56] = test system: SF-539 CNS
[57] = test system: MOLT-4 leukemia
[58] = test system: NCI-H226 lung

`C/C(=N\O)c1ccc2cc(Br)c3ccccc3c2c1` was tested, and the TGI [1] was 46.8 µM, the TGI [2] was 69.9 µM and the TGI [3] was > 100 µM. The TGI [4] was 37.5 µM, the TGI [5] was > 100 µM and the TGI [6] was > 100 µM. For the same compound, the TGI [7] was 29.7 µM, the TGI [8] was 35.2 µM and the TGI [9] was 32 µM. For the same compound, the TGI [10] was 33.3 µM, the TGI [11] was > 100 µM and the TGI [12] was 32.1 µM. The TGI [13] was > 100 µM, the TGI [14] was 28.7 µM and the TGI [15] was 43 µM. For the same compound, the TGI [16] was 46.6 µM, the TGI [17] was 48.3 µM and the TGI [18] was 32.8 µM. For the same compound, the TGI [19] was 35.4 µM, the TGI [20] was > 100 µM and the TGI [21] was 25.8 µM. For the same compound, the TGI [22] was > 100 µM, the TGI [23] was 47.2 µM and the TGI [24] was 31.9 µM. The TGI [25] was > 100 µM, the TGI [26] was 60.9 µM and the TGI [27] was > 100 µM. For the same compound, the TGI [28] was > 100 µM, the TGI [29] was 33.2 µM and the TGI [30] was 47.5 µM. For the same compound, the TGI [31] was 44.7 µM, the TGI [32] was 61.1 µM and the TGI [33] was 34.7 µM. The TGI [34] was 45.9 µM, the TGI [35] was 36.7 µM and the TGI [36] was 39.8 µM. For the same compound, the TGI [37] was > 100 µM, the TGI [38] was > 100 µM and the TGI [39] was 93.3 µM. For the same compound, the TGI [40] was 25.8 µM, the TGI [41] was 33 µM and the TGI [42] was > 100 µM. The TGI [43] was 43.6 µM, the TGI [44] was 64 µM and the TGI [45] was 42.6 µM. The TGI [46] was 32.6 µM, the TGI [47] was 20.5 µM and the TGI [48] was 35.3 µM. The TGI [49] was 88.2 µM, the TGI [50] was 43.2 µM and the TGI [51] was 50.9 µM. The TGI [52] was 32 µM, the TGI [53] was 41.2 µM and the TGI [54] was 44.4 µM.
`COC(=O)CCCC(=O)NC1=C(Nc2ccc(OC)cc2)C(=O)c2ccccc2C1=O` was tested, and the TGI [2] was 32.1 µM, the TGI [3] was 42.7 µM and the TGI [4] was 88.4 µM. The TGI [5] was > 100 µM, the TGI [6] was 36.8 µM and the TGI [7] was > 100 µM. For the same compound, the TGI [8] was 35.4 µM, the TGI [10] was 31.3 µM and the TGI [11] was > 100 µM. The TGI [12] was 82.9 µM, the TGI [13] was > 100 µM and the TGI [14] was 80.9 µM. For the same compound, the TGI [15] was > 100 µM, the TGI [55] was > 100 µM and the TGI [16] was > 100 µM. For the same compound, the TGI [17] was 74.2 µM, the TGI [18] was 92.8 µM and the TGI [19] was 84.4 µM. For the same compound, the TGI [20] was 91.5 µM, the TGI [21] was 33.2 µM and the TGI [22] was > 100 µM. For the same compound, the TGI [23] was 25.3 µM, the TGI [25] was > 100 µM and the TGI [26] was > 100 µM. For the same compound, the TGI [27] was 34.6 µM, the TGI [28] was 31.7 µM and the TGI [56] was 36.1 µM. For the same compound, the TGI [29] was 36.1 µM, the TGI [30] was 71.1 µM and the TGI [31] was 54.5 µM. The TGI [32] was 58.2 µM, the TGI [33] was 89 µM and the TGI [34] was 51.3 µM. The TGI [35] was > 100 µM, the TGI [36] was > 100 µM and the TGI [37] was 70.1 µM. For the same compound, the TGI [38] was 82.6 µM, the TGI [39] was > 100 µM and the TGI [40] was 43.2 µM. For the same compound, the TGI [41] was > 100 µM, the TGI [42] was 65.6 µM and the TGI [43] was 41.2 µM. For the same compound, the TGI [44] was 35.4 µM, the TGI [45] was 44.9 µM and the TGI [46] was > 100 µM. It also gave a TGI [48] of 13.5 µM, a TGI [49] of 57.8 µM and a TGI [50] of 36.6 µM. The TGI [57] was 60.4 µM, the TGI [51] was > 100 µM and the TGI [52] was 37.8 µM. The TGI [53] was 33.7 µM and the TGI [54] was 51.5 µM.
`COc1ccccc1N1C(=O)/C(=C\c2cc(OC)c(OC)c(OC)c2)SC1c1ccccc1` (stereo not drawn) was tested, and the TGI [1] was > 100 µM, the TGI [2] was 53.5 µM and the TGI [3] was > 100 µM. The TGI [4] was > 100 µM, the TGI [5] was > 100 µM and the TGI [7] was > 100 µM. The TGI [8] was > 100 µM, the TGI [9] was > 100 µM and the TGI [10] was > 100 µM. The TGI [11] was > 100 µM, the TGI [12] was > 100 µM and the TGI [13] was 72.7 µM. The TGI [14] was > 100 µM, the TGI [15] was > 100 µM and the TGI [55] was > 100 µM. For the same compound, the TGI [16] was > 100 µM, the TGI [17] was > 100 µM and the TGI [18] was > 100 µM. For the same compound, the TGI [19] was > 100 µM, the TGI [20] was > 100 µM and the TGI [21] was > 100 µM. The TGI [22] was > 100 µM, the TGI [23] was > 100 µM and the TGI [24] was > 100 µM. The TGI [25] was > 100 µM, the TGI [26] was > 100 µM and the TGI [58] was > 100 µM. The TGI [27] was > 100 µM, the TGI [28] was > 100 µM and the TGI [56] was > 100 µM. The TGI [29] was > 100 µM, the TGI [30] was > 100 µM and the TGI [31] was > 100 µM. The TGI [32] was 45.5 µM, the TGI [33] was > 100 µM and the TGI [34] was > 100 µM. For the same compound, the TGI [35] was > 100 µM, the TGI [36] was > 100 µM and the TGI [37] was 38.2 µM. The TGI [38] was > 100 µM, the TGI [39] was > 100 µM and the TGI [40] was > 100 µM. For the same compound, the TGI [41] was > 100 µM, the TGI [43] was 42.5 µM and the TGI [44] was > 100 µM. For the same compound, the TGI [45] was > 100 µM, the TGI [46] was > 100 µM and the TGI [47] was > 100 µM. The TGI [48] was 81.4 µM, the TGI [49] was > 100 µM and the TGI [50] was > 100 µM. The TGI [57] was > 100 µM, the TGI [51] was 25.4 µM and the TGI [52] was > 100 µM. For the same compound, the TGI [53] was 91.7 µM and the TGI [54] was > 100 µM.
